This assay has as its system M. mycetomatis genome strain MM55. Description: CLSI M38-A2 based in vitro susceptibility screening (XTT or resazurin), growth at fixed concentration. The assay is classed as cell-based, Madurella mycetomatis. To be noted: Madurella mycetomatis; for Percent fungal survival at 100 µM: read-out: Percentage survival at 100um, 100 uM A (second replicate column).
[1] abbreviates: mean of replicates, MM55, read-out: Percentage survival at 25um, 25 uM mean.
Setting [2] is: replicate A, MM55, read-out: Percentage survival at 25um, 25 um A.
Where [3] appears, read: replicate B, MM55, read-out: Percentage survival at 25um, 25 uM B.
The mark [4] stands for this setting: replicate C, MM55, read-out: Percentage survival at 25um, 25 uM C.
[5] abbreviates: mean of replicates, MM55, read-out: Percentage survival at 100um, 100 uM mean.
[6] abbreviates: replicate 1, MM55, read-out: Percentage survival at 100um, 100 uM A.
Setting [7] is: replicate 2, MM55, read-out: Percentage survival at 100um, 100 uM A.
Setting [8] is: replicate 3, MM55, read-out: Percentage survival at 100um, 100 uM A.
The mark [9] stands for this setting: mean of three replicates, read-out: Percentage survival at 25um, 25 uM mean.
Setting [10] is: replicate A, read-out: Percentage survival at 25um, 25 um A.
[11] abbreviates: replicate B, read-out: Percentage survival at 25um, 25 uM B.
Setting [12] is: replicate C, read-out: Percentage survival at 25um, 25 uM C.
Setting [13] is: mean of three replicates, read-out: Percentage survival at 100um, 100 uM mean.
Where [14] appears, read: replicate 1, read-out: Percentage survival at 100um, 100 uM A (first replicate column).
[15] abbreviates: replicate 3, read-out: Percentage survival at 100um, 100 uM A (third replicate column).
Where [16] appears, read: mean of replicates, read-out: Percentage survival at 25um, 25 uM mean.
Where [17] appears, read: mean of replicates, read-out: Percentage survival at 100um, 100 uM mean.
Setting [18] is: replicate 1, read-out: Percentage survival at 100um, 100 uM A.
Setting [19] is: replicate 2, read-out: Percentage survival at 100um, 100 uM A.
Where [20] appears, read: replicate 3, read-out: Percentage survival at 100um, 100 uM A.
Setting [21] is: mean, read-out: Percentage survival at 25um, 25 uM mean.
Setting [22] is: mean, read-out: Percentage survival at 100um, 100 uM mean.
Setting [23] is: replicate (first column), read-out: Percentage survival at 100um, 100 uM A.
Setting [24] is: replicate (second column), read-out: Percentage survival at 100um, 100 uM A.
The mark [25] stands for this setting: replicate (third column), read-out: Percentage survival at 100um, 100 uM A.

Read-outs that look alike come from different tables or passages of the source.

Turning to `NC(=O)C(c1ccccc1)(c1ccccc1)[C@H]1CCCN(CCc2ccc3c(c2)CCO3)C1` [MMV1782412], the activity at 25 µM is, setting by setting: under setting [1], 101%; under setting [2], 130%; under setting [3], 101%; under setting [4], 70.7%. The activity at 100 µM is, setting by setting: under setting [5], 68.7%; under setting [6], 67.1%; under setting [7], 68%; under setting [8], 71%.
Turning to `O=c1nc(N2CCN(CC3CCCCC3)CC2)sc2c([N+](=O)[O-])cc(C(F)(F)F)cc12` [MMV1578885], the activity at 25 µM reads like this: under setting [9], 90.5%; under setting [10], 84.1%; under setting [11], 98%; under setting [12], 89.5%. Moreover, the activity at 100 µM runs as follows: under setting [13], 82.7%; under setting [14], 87.8%; under setting [15], 84.8%. The Percent fungal survival at 100 µM (replicate 2) stood at 75.6%.
With `O=P(O)(O)C(CCCc1cccc(Oc2ccccc2)c1)S(=O)(=O)O` (centres unmarked) [MMV1782215], the activity at 25 µM worked out at 69.1% under setting [9], 82.3% under setting [10], 68.2% under setting [11] and 56.8% under setting [12]. Further, the activity at 100 µM was 68.9% under setting [13], 79.5% under setting [14] and 62% under setting [15]. For the same molecule, the Percent fungal survival at 100 µM (replicate 2) was 65.1%.
For `Cc1cc(CCCOc2c(C)cc(-c3noc(C(F)(F)F)n3)cc2C)on1` [MMV690467], the activity at 25 µM turned out to be 115% under setting [1], 152% under setting [2], 84.5% under setting [3] and 108% under setting [4]. Moreover, the activity at 100 µM worked out at 79.3% under setting [5], 70.9% under setting [6], 103% under setting [7] and 64.3% under setting [8].
Consider `Nc1nc(N)c2c(Sc3ccccc3)cccc2n1` [MMV021759], for which the activity at 25 µM was 88.1% under setting [16], 63.3% under setting [10], 65.8% under setting [11] and 135% under setting [12]. The activity at 100 µM runs as follows: under setting [17], 5.59%; under setting [18], -1.97%; under setting [19], 5.6%; under setting [20], 13.1%.
For `COc1c(F)c(F)cc2c(=O)c(C(=O)O)cn(C3CC3)c12` [MMV1480967], the activity at 25 µM is, setting by setting: under setting [16], 104%; under setting [10], 87.1%; under setting [11], 91%; under setting [12], 135%. The activity at 100 µM is 77.9% under setting [17], 85.8% under setting [18], 67.1% under setting [19] and 80.8% under setting [20].
As for `CCOCc1nc2c(N)nc3ccccc3c2n1CC(C)(C)O` [MMV690547], the activity at 25 µM is 98% under setting [9], 95.3% under setting [10], 111% under setting [11] and 87.7% under setting [12]. Also, the activity at 100 µM is 90.4% under setting [13], 97% under setting [14] and 87.9% under setting [15]. Besides, the Percent fungal survival at 100 µM (replicate 2) amounted to 86.2%.
For the molecule `O=C(Nc1ccc(F)cc1)c1nn(-c2ccccc2)c(=O)cc1Cl` [MMV1578555], the activity at 25 µM was 76.7% under setting [16], 84.2% under setting [10], 79.1% under setting [11] and 66.7% under setting [12]. For the same molecule, the activity at 100 µM reads like this: under setting [17], 1.51%; under setting [18], 0.758%; under setting [19], 0.453%; under setting [20], 3.31%.
Turning to `O=C(CP(=O)(O)O)NCCc1cccc(Oc2ccccc2)c1` [MMV1579787], the activity at 25 µM runs as follows: under setting [21], 79.8%; under setting [10], 84.6%; under setting [11], 81.7%; under setting [12], 73.2%. Also, the activity at 100 µM runs as follows: under setting [22], 46.3%; under setting [23], -0.0188%; under setting [24], 65.7%; under setting [25], 73.3%.
For the molecule `CC[C@@]1(O)C(=O)OCc2c1cc1n(c2=O)Cc2cc3c(CN(C)C)c(O)ccc3nc2-1` [MMV1633678], the activity at 25 µM worked out at 101% under setting [9], 86.9% under setting [10], 110% under setting [11] and 108% under setting [12]. Further, the activity at 100 µM by setting is: (first replicate column, read-out: Percentage survival at 100um, 100 uM A) 94.8%; under setting [13], 89.5%; (second replicate column, read-out: Percentage survival at 100um, 100 uM A) 86.7%; (third replicate column, read-out: Percentage survival at 100um, 100 uM A) 86.9%.
As to `CC(C)(C)c1ccc(OCCn2nc(C(=O)O)c3ccccc3c2=O)cc1` [MMV1634387], the activity at 25 µM (mean of three, M. mycetomatis MM55, read-out: Percentage survival at 25um, 25 uM mean) stood at 81.2%; the activity at 25 µM (replicate A, M. mycetomatis MM55, read-out: Percentage survival at 25um, 25 um A) amounted to 89.9%; the activity at 25 µM (replicate B, M. mycetomatis MM55, read-out: Percentage survival at 25um, 25 uM B) was determined as 84.5%; the activity at 25 µM (replicate C, M. mycetomatis MM55, read-out: Percentage survival at 25um, 25 uM C) was determined as 69.2%. The activity at 100 µM came to 66.6% (mean of three, M. mycetomatis MM55, read-out: Percentage survival at 100um, 100 uM mean); 80.6% (replicate 1, M. mycetomatis MM55, read-out: Percentage survival at 100um, 100 uM A (first replicate column)); 81.3% (replicate 3, M. mycetomatis MM55, read-out: Percentage survival at 100um, 100 uM A (third replicate column)). Also, the Percent fungal survival at 100 µM (replicate 2, M. mycetomatis MM55) was 37.8%.
With `O=C(NCc1ccc2c3c(cccc13)C(=O)N2)c1cccs1` [MMV1341773], the activity at 25 µM by setting is: under setting [16], 75.4%; under setting [10], 79.8%; under setting [11], 76.7%; under setting [12], 69.6%. Further, the activity at 100 µM runs as follows: under setting [17], 76.2%; under setting [18], 75.7%; under setting [19], 74%; under setting [20], 78.8%.
In the case of `CC(C)(C)c1cccc(-c2nc3cc(C(=N)N)ccc3[nH]2)c1O` [MMV1581548], the activity at 25 µM by setting is: under setting [21], 20.7%; under setting [10], 56.8%; under setting [11], 2.31%; under setting [12], 2.96%. The activity at 100 µM under setting [22] came to 3.06%, the activity at 100 µM under setting [23] was -0.0188%, the activity at 100 µM under setting [24] amounted to 5.51% and the activity at 100 µM under setting [25] stood at 3.71%.
As to `O=C(O)CSc1cc(NS(=O)(=O)c2cccc3cccnc23)c2ccccc2c1O` [MMV218827], the activity at 25 µM is, setting by setting: under setting [1], 91.4%; under setting [2], 90.9%; under setting [3], 95.2%; under setting [4], 88.2%. For the same molecule, the activity at 100 µM reads like this: under setting [5], 89.8%; under setting [6], 82.4%; under setting [7], 84.7%; under setting [8], 102%.
Consider `COc1ccc(SC(=O)N[C@H](CCC(=O)O)C(=O)O)cc1` [MMV1580846], for which the activity at 25 µM came out at 85% under setting [16], 78.8% under setting [10], 91.4% under setting [11] and 84.8% under setting [12]. Moreover, the activity at 100 µM was 45.7% under setting [17], -2.83% under setting [18], 55.8% under setting [19] and 84.3% under setting [20].
For the molecule `CC1(C)CC(NC(=O)C(=O)Nc2ccc(Cl)cc2)CC(C)(C)N1` [MMV1580501], the activity at 25 µM runs as follows: under setting [1], 79.5%; under setting [2], 75.9%; under setting [3], 89.4%; under setting [4], 73.3%. Also, the activity at 100 µM stood at 74.7% under setting [5], 76.9% under setting [6], 78.1% under setting [7] and 69% under setting [8].

Values taken from publication PMC8815882, “Screening the pandemic response box identified benzimidazole carbamates, Olorofim and ravuconazole as promising drug candidates for the treatment of eumycetoma” (PLoS Neglected Tropical Diseases, 2022).
